Tested on: 857933-349-R-J2-PDC complex spheroid viability
Experiment: Anticancer human tumor 857933-349-R-J2-PDC patient-derived colon adenocarcinoma cell line growth inhibition [POLQ]
Conditions: for IC50: curve of first compound; for viability, T/C: stronger effect = lower value
Protocol: Multicellular complex tumor spheroid response to Polymerase (POL) inhibitors (novobiocin, ART-558, RP6685) in combination with a variety of drugs and investigational agents in selected tumor cell lines
The POL inhibitors (novobiocin, ART-558, and RP6685) were evaluated both individually and in combination with standard of care and investigational anticancer small molecules within a complex spheroid model of solid tumors. . Complex spheroids include a stromal component modeled by human endothelial cells (HUVEC) and fibroblasts modeled by human mesenchymal stem cells (MSCs). The concentration ranges selected for each drug and investigational agent were based upon clinically achievable concentrations if the clinical Cmax of the agent was known.
Compounds. The drugs and investigational agents: novobiocin (NSC847541), ART-558 (NSC835418), RP-6685 (NSC848927), peposertib (NSC802822), ceralasertib (NSC780249), elimusertib (NSC800525), camonsertib (NSC841442), AZD-1390 (NSC803789), olaparib (NSC753686), talazoparib (NSC767125), rucaparib (NSC756644), sotorasib (NSC818433), MRTX-1133 (NSC836407), SN-38 (NSC673596), topotecan (NSC609699), epotoside (NSC141540), doxorubicin (NSC123127), gemcitabine (NSC613327), 5-fluorouracil (NSC19893), paclitaxel (NSC125973), vemurafenib (NSC761431), MSA-2 (NSC828583), SN-011 (NSC837082), adavosertib (NSC754352), prexasertib (NSC758257), carboplatin (NSC241240) and oxaliplatin (NSC266046), were obtained from the National Cancer Institute (NCI) Developmental Therapeutics Program Chemical Repository (21). The FDA-approved anticancer drug set is available from the Developmental Therapeutics Program at https://dtp.cancer.gov/organization/dscb/obtaining/. […] The stock solutions were prepared in dimethyl sulfoxide (DMSO, Sigma-Aldrich, St. Louis, MO, cat. D2650), except for the platinum compounds which were prepared in saline (Quality Biological, Gaithersburg, MD, cat. 114-055-101), at 800-fold the tested concentration and stored at -70 degrees C prior to their use. All drugs and investigational agents were tested over a range starting from a high concentration at or near the clinical Cmax and decreasing in half-log increments. If the clinical Cmax for an agent had not been determined, the highest concentration tested was 10 microM, except for SN-38, which was tested at a high concentration of 1 microM.
Cell Culture. All cells were maintained in an incubator at 37 degrees C and 5% CO2 with 95% humidity. The PDC lines were cultured according to standard operating procedures established by the NCI PDMR (https://pdmr.cancer.gov). Table 3 of the manuscript, lists the cell lines along with the number of the three cell types plated to form the mct-spheroids and media for tumor cell growth. After thawing, all PDC lines, except 997537-175-T-J1-PDC and 415267-285-R-J2-PDC, were cultured in Matrigel-coated flasks prepared with a working solution of 1X Ham's F-12 nutrient mix, without supplementation (Thermo Fisher Scientific, cat. 11765054), 100 U/mL penicillin-streptomycin (Thermo Fisher Scientific, cat. 15140122), and 2.5% Matrigel (Corning Inc., Corning, NY, cat. 354248) for the first three passages. The two PDC lines 997537-175-T-J1-PDC and 415267-285-R-J2-PDC were cultured on uncoated flasks. The 857933-349-R-J2-PDC line was cultured in 6C/Colon 1B media containing advanced DMEM/F-12 (Thermo Fisher Scientific, cat. 12634028), 10 mM HEPES (Thermo Fisher Scientific, cat. 15630080), 1X GlutaMAX supplement (Thermo Fisher Scientific, cat. 35050061), 0.1 mg/mL primocin (InvivoGen, San Diego, CA, cat. ant-pm-2), 10% defined fetal bovine serum, heat inactivated (HyClone Laboratories Inc., Logan, UT, cat. SH30070.03HI), 50% L-WRN conditioned media (ATCC, cat. CRL-3276), 1.25 mM N-Acetyl-L-cysteine (Sigma-Aldrich, cat. A9165), 10 mM nicotinamide (Sigma-Aldrich, cat. N0636), 1X B-27 supplement (Thermo Fisher Scientific, cat. 17504044), 1X N-2 supplement (Thermo Fisher Scientific, cat. […]

[1] = second compound 0.0316 µM, first compound 0.0316 µM
[2] = second compound 0.0316 µM, first compound 0.1 µM
[3] = second compound 0.0316 µM, first compound 0.316 µM
[4] = second compound 0.0316 µM, first compound 1 µM
[5] = second compound 0.0316 µM, first compound 3.16 µM
[6] = second compound 0.0316 µM, first compound 10 µM
[7] = second compound 0.1 µM, first compound 0.0316 µM
[8] = second compound 0.1 µM, first compound 0.1 µM
[9] = second compound 0.1 µM, first compound 0.316 µM
[10] = second compound 0.1 µM, first compound 1 µM
[11] = second compound 0.1 µM, first compound 3.16 µM
[12] = second compound 0.1 µM, first compound 10 µM
[13] = second compound 0.316 µM, first compound 0.0316 µM
[14] = second compound 0.316 µM, first compound 0.1 µM
[15] = second compound 0.316 µM, first compound 0.316 µM
[16] = second compound 0.316 µM, first compound 1 µM
[17] = second compound 0.316 µM, first compound 3.16 µM
[18] = second compound 0.316 µM, first compound 10 µM
[19] = second compound 1 µM, first compound 0.0316 µM
[20] = second compound 1 µM, first compound 0.1 µM
[21] = second compound 1 µM, first compound 0.316 µM
[22] = second compound 1 µM, first compound 1 µM
[23] = second compound 1 µM, first compound 3.16 µM
[24] = second compound 1 µM, first compound 10 µM
[25] = second compound 3.16 µM, first compound 0.0316 µM
[26] = second compound 3.16 µM, first compound 0.1 µM
[27] = second compound 3.16 µM, first compound 0.316 µM
[28] = second compound 3.16 µM, first compound 1 µM
[29] = second compound 3.16 µM, first compound 3.16 µM
[30] = second compound 3.16 µM, first compound 10 µM
[31] = second compound 10 µM, first compound 0.0316 µM
[32] = second compound 10 µM, first compound 0.1 µM
[33] = second compound 10 µM, first compound 0.316 µM
[34] = second compound 10 µM, first compound 1 µM
[35] = second compound 10 µM, first compound 3.16 µM
[36] = second compound 10 µM, first compound 10 µM
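Note: spheroids exposed to compounds for seven days before readout.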

With `CC(C)n1c(=O)n(C)c2cnc3cc(F)c(-c4ccc(OCCCN5CCCCC5)nc4)cc3c21` + Cc1cccc(N(C)C(=O)C2C(O)CCN2c2nc(C)cc(C(F)(F)F)c2C#N)c1 the IC50 (second compound 0.0316 µM) was greater than 10 µM, the IC50 (second compound 0.1 µM) was greater than 10 µM and the IC50 (second compound 0.316 µM) was greater than 10 µM. It also gave an IC50 (second compound 1 µM) greater than 10 µM, an IC50 (second compound 3.16 µM) greater than 10 µM and an IC50 (second compound 10 µM) greater than 10 µM. The viability, T/C [1] was 106%, the viability, T/C [2] was 78.1% and the viability, T/C [3] was 90.2%. It also gave a viability, T/C [4] of 113%, a viability, T/C [5] of 107% and a viability, T/C [6] of 69.8%. The viability, T/C [7] was 97.7%, the viability, T/C [8] was 107% and the viability, T/C [9] was 98.9%. It also gave a viability, T/C [10] of 105%, a viability, T/C [11] of 87% and a viability, T/C [12] of 68.5%. For the same compound, the viability, T/C [13] was 97.2%, the viability, T/C [14] was 94.3% and the viability, T/C [15] was 104%. For the same compound, the viability, T/C [16] was 94.9%, the viability, T/C [17] was 105% and the viability, T/C [18] was 88%. For the same compound, the viability, T/C [19] was 80.7%, the viability, T/C [20] was 73.8% and the viability, T/C [21] was 92.6%. The viability, T/C [22] was 110%, the viability, T/C [23] was 114% and the viability, T/C [24] was 66.9%. For the same compound, the viability, T/C [25] was 83.6%, the viability, T/C [26] was 89.2% and the viability, T/C [27] was 116%. It also gave a viability, T/C [28] of 79.3%, a viability, T/C [29] of 102% and a viability, T/C [30] of 75%. The viability, T/C [31] was 73.2%, the viability, T/C [32] was 65.9% and the viability, T/C [33] was 87.9%. The viability, T/C [34] was 97.3%, the viability, T/C [35] was 106% and the viability, T/C [36] was 64.5%.

Compound `CCc1cc2c(N3CCc4c(cc(Cn5ccnc5)cc4-c4cn(C)nc4C(F)(F)F)C3=O)ccnc2c(OC)n1` + Cc1cccc(N(C)C(=O)C2C(O)CCN2c2nc(C)cc(C(F)(F)F)c2C#N)c1 has an IC50 (second compound 0.0316 µM) greater than 10 µM, an IC50 (second compound 0.1 µM) greater than 10 µM and an IC50 (second compound 0.316 µM) greater than 10 µM. The IC50 (second compound 1 µM) was greater than 10 µM, the IC50 (second compound 3.16 µM) was greater than 10 µM and the IC50 (second compound 10 µM) was greater than 10 µM. The viability, T/C [1] was 104%, the viability, T/C [2] was 91% and the viability, T/C [3] was 94.5%. It also gave a viability, T/C [4] of 82%, a viability, T/C [5] of 77.7% and a viability, T/C [6] of 63.1%. It also gave a viability, T/C [7] of 91.6%, a viability, T/C [8] of 92.8% and a viability, T/C [9] of 75.9%. For the same compound, the viability, T/C [10] was 79.5%, the viability, T/C [11] was 77% and the viability, T/C [12] was 54.8%. For the same compound, the viability, T/C [13] was 96.5%, the viability, T/C [14] was 100% and the viability, T/C [15] was 92.4%. For the same compound, the viability, T/C [16] was 97.8%, the viability, T/C [17] was 79.7% and the viability, T/C [18] was 61.1%. For the same compound, the viability, T/C [19] was 122%, the viability, T/C [20] was 103% and the viability, T/C [21] was 93.1%. It also gave a viability, T/C [22] of 83.3%, a viability, T/C [23] of 82.5% and a viability, T/C [24] of 72.3%. The viability, T/C [25] was 97.8%, the viability, T/C [26] was 80.1% and the viability, T/C [27] was 83%. The viability, T/C [28] was 88.7%, the viability, T/C [29] was 79.2% and the viability, T/C [30] was 84.8%. For the same compound, the viability, T/C [31] was 96.3%, the viability, T/C [32] was 96.3% and the viability, T/C [33] was 80.1%. It also gave a viability, T/C [34] of 73.6%, a viability, T/C [35] of 76.3% and a viability, T/C [36] of 61.9%.

`COc1cccc2c1C(=O)c1c(O)c3c(c(O)c1C2=O)CC(O)(C(=O)CO)CC3OC1CC(N)C(O)C(C)O1` (stereo unspecified) + Nc1ccc(C#CCN(C(=O)Cc2ncc(C(F)(F)F)cc2C(F)(F)F)c2ccc(F)cc2)nn1 was tested, and the IC50 (second compound 0.0316 µM) was 0.22 µM, the IC50 (second compound 0.1 µM) was 0.212 µM and the IC50 (second compound 0.316 µM) was 0.234 µM. The IC50 (second compound 1 µM) was 0.216 µM, the IC50 (second compound 3.16 µM) was 0.175 µM and the IC50 (second compound 10 µM) was 0.149 µM. The viability, T/C [1] was 74.9%, the viability, T/C [2] was 63% and the viability, T/C [3] was 43.9%. For the same compound, the viability, T/C [4] was 5.65%, the viability, T/C [5] was 0.31% and the viability, T/C [6] was 0.26%. It also gave a viability, T/C [7] of 74.3%, a viability, T/C [8] of 67.1% and a viability, T/C [9] of 40.7%. It also gave a viability, T/C [10] of 5.86%, a viability, T/C [11] of 0.25% and a viability, T/C [12] of 0.17%. The viability, T/C [13] was 65%, the viability, T/C [14] was 85.6% and the viability, T/C [15] was 41.1%. For the same compound, the viability, T/C [16] was 5.61%, the viability, T/C [17] was 0.2% and the viability, T/C [18] was 0.19%. It also gave a viability, T/C [19] of 83%, a viability, T/C [20] of 75.7% and a viability, T/C [21] of 36.9%. The viability, T/C [22] was 9.45%, the viability, T/C [23] was 0.22% and the viability, T/C [24] was 0.23%. It also gave a viability, T/C [25] of 72.5%, a viability, T/C [26] of 60.4% and a viability, T/C [27] of 37.9%. It also gave a viability, T/C [28] of 5.43%, a viability, T/C [29] of 0.39% and a viability, T/C [30] of 0.28%. For the same compound, the viability, T/C [31] was 66.9%, the viability, T/C [32] was 63% and the viability, T/C [33] was 26.8%. For the same compound, the viability, T/C [34] was 6.24%, the viability, T/C [35] was 0.35% and the viability, T/C [36] was 0.32%.

From PubChem BioAssay AID1963836 (Molecular Pharmacology Branch, DTP, NCI, 2024)
